Experimental data reported in ChEMBL document CHEMBL1221387, “Prenylflavonoids from Glycyrrhiza uralensis and their protein tyrosine phosphatase-1B inhibitory activities” (Bioorg Med Chem Lett, 2010).

Target: T1, Tyrosine-protein phosphatase non-receptor type 1 (Homo sapiens, UniProt P18031)
T1 sequence (P18031 whole entry): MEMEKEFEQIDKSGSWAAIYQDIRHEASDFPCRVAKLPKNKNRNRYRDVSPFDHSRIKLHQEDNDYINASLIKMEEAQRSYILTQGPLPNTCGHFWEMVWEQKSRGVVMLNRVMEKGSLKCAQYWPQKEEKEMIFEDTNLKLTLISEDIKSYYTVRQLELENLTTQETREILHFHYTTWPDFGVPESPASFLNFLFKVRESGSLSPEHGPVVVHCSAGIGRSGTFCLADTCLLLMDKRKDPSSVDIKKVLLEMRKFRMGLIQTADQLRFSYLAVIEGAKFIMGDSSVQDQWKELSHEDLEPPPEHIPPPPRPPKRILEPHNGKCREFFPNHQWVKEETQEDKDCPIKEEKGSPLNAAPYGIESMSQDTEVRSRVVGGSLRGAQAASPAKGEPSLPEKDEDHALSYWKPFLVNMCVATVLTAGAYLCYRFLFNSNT
Assay: Inhibition of human recombinant PTP1B assessed as p-nitorphenol production after 30 mins

Row | SMILES | IC50 [µM]
1 | COc1c(CC=C(C)C)c(O)cc2oc(=O)c(-c3ccc(O)cc3O)cc12 [GLYCYCOUMARIN] | 184
2 | CC(C)=CCc1cc(-c2coc3cc(O)cc(O)c3c2=O)cc(O)c1O [GLYCYRRHISOFLAVONE] | 58.7
3 | COc1c(CC=C(C)C)c(O)cc2oc(-c3ccc(O)cc3O)cc12 [LICOCOUMARONE] | 71.2
4 | CC(C)=CCc1cc2c(=O)cc(-c3ccc(O)cc3)oc2cc1O [LICOFLAVANONE A] | 54.5

Stronger by IC50, values ahead:

Row | IC50 [µM] | SMILES
5 | 4.4 | CCCCCCCCCCCCCCCC(=O)C1=C(O)[C@@H](CO)OC1=O
6 | 27.9 | COc1cc(O)cc2occ(-c3cc(O)c(O)c(CC=C(C)C)c3)c(=O)c12 [GLISOFLAVONE]
7 | 25.5 | COc1c(CC=C(C)C)c(O)cc(O)c1-c1oc2cc(O)ccc2c1C [GLYCYBENZOFURAN]
